Consider two molecules from patent publication US20140107051A1, “ISOFLAVONES FOR TREATING MUCOPOLYSACCHARIDOSES” (INSTYTUT FARMACEUTYCZNY, priority 2005, published 2014).

“Also recorded” adds a separate entry of the source. Like-named read-outs stand apart in the source and are kept apart here.

The conditions of data set [1]: rat; intravenously administered; cited from earlier work.
Data set [2] in a line: Proliferation 144 h (Table 4). Type of data set: cell-based. The following applies: read-out: Proliferation 144 h IC50.
For data set [3], the system named is cultured human skin fibroblasts derived from patients affected with mucopolysaccharidose. Nature of the data set: 35S-sulphate incorporation test of glycosaminoglycans synthesis, different human cell lines / MPS types. The class given is cell-based. The procedure: (§1) The activity of isoflavones was evaluated by the measure of glycosaminoglycans synthesis in 35S-sulphate incorporation test comprising incubation of the radiolabelled 35S-sulfate into GAGs in cultured human skin fibroblasts derived from normal individuals (control) and patients affected with mucopolysaccharidose (Murata et al., Arch Biochem Biophys 2003; 413: 229-235).
(§2) The negative control was DMSO (diluent for genistein and all derivatives), the positive control—genistein. […] Experiment with each cell line has been repeated twice, and every measurement has been done twice.

Data set [4] has as its system fibroblasts of patients affected with MPS I. Briefly: 35S-sulphate incorporation test of glycosaminoglycans synthesis, MPS I cells. Type of data set: cell-based, human. The procedure:
as §1, §2

For data set [5], the system named is fibroblasts. Nature of the data set: Electron microscope observation of GAG deposits in fibroblasts. The class given is cell-based, human. The settings on record: fibroblasts cultured one week; genistein 10 micromolar.
The subject of data set [6] is fibroblasts cells derived from patients affected with different MPSs. Nature of the data set: GAG level / deposits in cultured fibroblasts of MPS patients. The class given is cell-based, human.
Data set [7] concerns cultured human skin fibroblasts derived from normal individuals. Briefly: 35S-sulphate incorporation test of glycosaminoglycans synthesis, normal cells. Type of data set: cell-based. The procedure:
as §1, §2

The subject of data set [8] is MPS IIIA fibroblasts. Briefly: Number of lysosomal structures by electron microscopy, MPS IIIA. The class given is cell-based, human. The settings on record: 30 μM.
The test system of data set [9] is MPS IIIB fibroblasts. Nature of the data set: Number of lysosomal structures by electron microscopy, MPS IIIB. The class given is cell-based, human. The settings on record: 30 μM.
Data set [10] relates to glycosaminoglycan (GAG) synthesis. Nature of the data set: GAG synthesis, 35S incorp. (Table 4). Type of data set: cell-based.

Regarding `O=c1c(-c2ccc(O)cc2)coc2cc(O)cc(O)c12` [Genistein, 4′,5,7-trihydroxy-3-phenylchromen-4-on, reference compound], in data set [1], the “effectiveness of crossing the blood-brain barrier” value was “about 10%”. For the same molecule, the IC50 in data set [2] amounted to 16.9 µM. Further, the “glycosaminoglycans synthesis (in words)” value is recorded as “significantly reduced” in [3] (cells from individuals with other types of MPS, FIG. 2, FIG. 3) and “significant inhibition of glycosaminoglycans synthesis” in [3] (cultured fibroblasts from MPS patients, 10-30 micromoles/l). Also, the activity at 30 µM in data set [4] (Homo sapiens, Fibroblast, 30 μM, DMSO control = 1, read-out: Relative GAG synthesis (converted to 1 cell), MPS I) came out at 51%; in data set [7] (Homo sapiens, Skin fibroblast, 30 μM, DMSO control = 1, read-out: Relative GAG synthesis (converted to 1 cell), Normal cells), 25%. For the same molecule, the “level of glycosaminoglycans synthesis (in words)” value in [4] (fibroblasts from MPS 1 patients, FIG. 1) was “significant decreasing”; in data set [7] (fibroblasts from normal individuals, FIG. 1), “significant decreasing”. Also, in data set [5], the “deposits seen by electron microscope (in words)” value is “disappearance of deposits; also recorded: decline of the before accumulated glycosaminoglycans”. Besides, in [6] (cells of MPS I, MPS II, MPS IIIA and MPS IIIB patients, six days), the “level of glycosaminoglycans in cells (in words)” value is listed as “significantly decreased, reaching after six days a level almost identical with the normal one”. In data set [6] (cultured fibroblasts), the “genistein concentrations at which decrease of GAG synthesis and reduction of deposits is observed” value lay in the range of 10 to 20 µmol/L. For the same molecule, in data set [6] (few days of cultivation, genistein 10 micromoles/l, FIG. 4), the “removal of GAG deposits accumulated in cells (in words)” value is listed as “deposits are gradually removed; also recorded: comparable with the activity of recombinant human α-L-iduronidase (Aldurazyme)”. Also, the “Inhibition in relation to genistein, first symbol (normal cells)” value in data set [7] (30 μM) is given as 0.

On to `CCCC[N+](CCCC)(CCCC)CCCC.O=C([O-])CCCC(=O)Oc1cc(O)c2c(=O)c(-c3ccc(O)cc3)coc2c1` [IFG-038], for which the IC50 in [2] was 19.9 µM. Also, the “influence on GAG synthesis compared with genistein (in words)” value in data set [3] (30 μM, both cell lines of Table 2) is recorded as “an activity comparable with genistein”. In [8], the “Number of structures per 100 μm^2 of cellular cross section ± SD, amorphous” value was found to be 0.21 ± 0.13 per 100 μm^2; the “Number of structures per 100 μm^2 of cellular cross section ± SD, complexed” value amounted to 0.27 ± 0.13 per 100 μm^2; the “Number of structures per 100 μm^2 of cellular cross section ± SD, lamellar” value came to 0.32 ± 0.16 per 100 μm^2; the “Number of structures per 100 μm^2 of cellular cross section ± SD, total number” value is listed as 0.80 ± 0.24 per 100 μm^2. For the same molecule, the “Relative GAG synthesis (converted to 1 cell), MPS I” value in data set [4] (30 μM, DMSO control = 1) was determined as 0.74. Further, the CC50 (read-out: Cytotoxicity 24 h LC50, 24 h) was over 30 µM. Also, the CC50 (read-out: Cytotoxicity 48 h LC50, 48 h) is over 30 µM. Further, in [9], the “Number of structures per 100 μm^2 of cellular cross section ± SD, amorphous” value was 0.09 ± 0.09 per 100 μm^2; the “Number of structures per 100 μm^2 of cellular cross section ± SD, complexed” value stood at 0.10 ± 0.10 per 100 μm^2; the “Number of structures per 100 μm^2 of cellular cross section ± SD, lamellar” value stood at 0.21 ± 0.12 per 100 μm^2; the “Number of structures per 100 μm^2 of cellular cross section ± SD, total number” value was found to be 0.41 ± 0.18 per 100 μm^2. Moreover, the “GAG synthesis 35S incorp.” value in [10] came out at 55 ± 13%. Further, the “Relative GAG synthesis (converted to 1 cell), Normal cells” value in data set [7] (30 μM, DMSO control = 1) came to 0.74.
